Measured values reported in patent US8206707B2, “Combination therapy for the treatment of ocular neovascular disorders” (Ophthotech Corporation, priority 2004, dated 2012).
Entries after “also recorded” stand apart in the source; their conditions may differ.

Legend:
[1] = system: corneal neovascularization; assay: Corneal NV regression, order of addition of therapeutic agent, Example 8; format: in vivo, C57BL/6 mice; settings: APB5 from day 14-21, pegaptanib sodium from day 21-28; read day 28; FIG. 14
Method: (§1) Corneal Neovascularization is a widely used animal model that allows clear visualization of abnormal vascular growth in the eye. The vessels that grow into the normally avascular cornea, can become well established, making this an attractive model to study vessel regression. To induce experimental corneal NV, male C57BL/6 mice (18-20 g; Charles River, Wilmington, Mass.) were anesthetized with intramuscular ketamine hydrochloride (25 mg/kg) and xylazine (10 mg/kg). NaOH (2 ul of 0.2 mM) was applied topically. The corneal and limbal epithelia were removed by applying a rotary motion parallel to the limbus using #21 blade (Feather, Osaka, Japan). […] Corneal NV was visualized using fluorescence microscopy and quantified using Openlab software. The percent of cornea covered by vessels was calculated as a percentage of total corneal area.
(§2) The corneal NV model of Example 1 was used to investigate the effect of order of addition of the combination therapy using an anti-VEGF aptamer and an antibody against the PDGFB receptor. […] Corneal NV was visualized using fluorescence microscopy and quantified using Openlab software. The percent of cornea covered by vessels was calculated as a percentage of total corneal area and the results are depicted in FIG. 14.

[2] = system: developing vessels of the retina; assay: Neonatal mouse model, developing vessels of the retina, Example 3; format: in vivo, Neonatal C57BL/6 mice; settings: for effect on blood vessels of the developing retina (growth, morphology): 100 μg of each agent i.p. daily from P0, eyes taken at P4, versus control non-treated retina, FIG. 10
Description: The effect of administering pegaptanib sodium (Macugen™), and ARC-127 (Archemix Corp., Cambridge, Mass.), a PEGylated, anti-PDGF aptamer having the sequence […] […] […] GT (SEQ ID NO: 23, which corresponds to SEQ ID NO: 146 from U.S. Pat. No. 6,582,918, incorporated herein by reference in its entirety) having 2′-fluoro-2′-deoxyuridine at positions 6, 20 and 30, 2′-fluoro-2′-deoxycytidine at positions 8, 21, 28, and 29, 2′-O -Methyl-2′-deoxyguanosine at positions 9, 15, 17, and 31, 2′-O-Methyl-2′-deoxyadenosine at position 22, “N” in positions 10 and 23 from a hexaethylene-glycol phosphoramidite, and an inverted orientation T (i.e., 3′-3′-linked) at position 32, or both on the developing vessels of the retina was investigated. Neonatal C57BL/6 mice were injected daily (in the intra-peritoneal cavity) with 100 μg of ARC-127 or 100 μg of Macugen or both, starting on postnatal day 0 (P0). Mice eyes were enucleated at P4. The retinal vasculature was visualized in flatmounted retinas by immunostaining with PECAM and NG-2 or by perfusion with ConA-FITC and analyzed by fluorescence microscopy.

[3] = system: corneal neovascularization; assay: Corneal neovascularization (corneal NV) model, Example 1; format: in vivo, C57BL/6 mice; settings: mice; pegaptanib 25 mg/kg i.p. twice a day, Gleevec 50 mg/kg gavage twice a day; treated day 7-14, read day 14; FIG. 5
[4] = system: corneal neovascularization; assay: Corneal NV regression, anti-VEGF aptamer and antibody against PDGFB receptor, Example 7; format: in vivo, C57BL/6 mice; settings: pegaptanib 25 mg/kg i.p. twice a day, APB5 50 mg/kg by gavage twice a day; treated day 14-28, read day 28; FIG. 13
Method: as §1
as §2, with “combination” for “effect”, “of” for “of order of addition of the combination therapy using”, “area.” for “area and the results are depicted in FIG. 14.”

[5] = system: choroidal neovascularization; assay: Laser-induced choroidal neovascularization (CNV) model, Example 2; format: in vivo, C57BL/6 mice; settings: treated 7 days from day 7; for decrease in CNV area compared to control eyes: experiment with Gleevec (50 mg/kg gavage twice a day) and pegaptanib 25 mg/kg i.p. twice a day
Method: Experimental CNV is often used as a model for Age-related Macular degeneration (AMD). In this model, vessels of the choroid grow through breaks in Bruch's membrane and into the retina, similar to what is observed in AMD patients. To induce experimental CNV, male C57BL/6 mice (18-20 g; Charles River, Wilmington, Mass.) were anesthetized with intramuscular ketamine hydrochloride (25 mg/kg) and xylazine (10 mg/kg) and the pupils were dilated with 1% tropicamide. Four burns were generated using diode laser photocoagulation (75-μm spot size, 0.1-second duration, 90 mW, Oculight SL laser, IRIDEX, Mountain View, Calif.) and a hand-held cover slide as a contact lens. Burns localized to the 3, 6, 9 and 12 o'clock positions of the posterior pole of the retina. Production of a bubble at the time of laser, which indicates rupture of Bruch's membrane, is an important factor in obtaining choroidal neovascularization, so only mice in which a bubble was produced for all four burns were included in the study. […] In experiments using APB5 (an anti-mouse PDGFRb (CD140b) antibody (anti-PDGF agent) from eBioscience, San Diego, Calif.), 5 mg/kg of antibody was administered using intra-peritoneal injections of twice a day. The area of choroidal NV lesions was measured in flat-mounted choroid stained with PECAM. Flat-mounts were examined by fluorescence microscopy and quantified using Openlab software.

[6] = system: corneal neovascularization; assay: Corneal NV regression, anti-VEGF aptamer and anti-PDGF aptamer, Example 6; format: in vivo, C57BL/6 mice; settings: pegaptanib 25 mg/kg i.p. twice a day, ARC-127 50 mg/kg once a day; treated day 10-20, read day 20; FIGS. 11, 12
Method: as §1
The corneal NV model of Example 1 was used to investigate the combination of an anti-VEGF aptamer and anti-PDGF aptamer. […] Corneal NV was visualized using CD31 staining (BD Biosciences Pharmingen, San Diego, Calif.) and quantified using Metamorph software. The percent of cornea covered by vessels was calculated as a percentage of total corneal area.

Row | Molecule | regression of corneal neovascularization, less neovascular growth as compared to control [1] | effect on blood vessels of the developing retina (growth, morphology) ([2]; listed as Macugen) | decrease in vessel growth (percent of cornea covered by vessels) as compared to untreated controls and Gleevec treated eyes [3] [%] | decrease in vessel growth (percent of cornea covered by vessels) as compared to control [4] [%] | decrease in CNV area compared to control ([5]; experiment with APB5 (5 mg/kg i.p. twice a day) and pegaptanib 25 mg/kg i.p. twice a day) [%] | decrease in CNV area compared to control eyes [5] [%] | decrease in vessel growth (percent of cornea covered by vessels) as compared to day 20 controls [6] | mural cell recruitment to the developing vessels of the retina ([2]; 100 μg i.p. daily from P0, eyes taken at P4) | effect on blood vessels of the developing retina (growth, morphology) [2]
1 | pegaptanib sodium | little effect | did not interfere; also recorded: no effect | 19.6 | 8.3 | 24 | 27 | 13.81% |  | 
2 | ARC-127: PEGylated, anti-PDGF aptamer (Archemix Corp.), sequence CAGGCUACGNCGTAGAGCAUCANTGATCCUGT (SEQ ID NO: 23) with 2′-fluoro and 2′-O-methyl modifications (CAGGCUACGNCGTAGAGCAUCANTGATCCUGT; PEG, 2'-fluoro and 2'-O-methyl modifications, chemistry not fully specified) |  |  |  |  |  |  | did not show a significant decrease | completely blocked | less vessel growth; also recorded: affects vessels outgrowth and morphology
3 | Cc1ccc(NC(=O)c2ccc(CN3CCN(C)CC3)cc2)cc1Nc1nccc(-c2cccnc2)n1 [Gleevec] |  |  |  |  |  | 4.2 |  |  | 
